From PubChem BioAssay AID1963848 (Molecular Pharmacology Branch, DTP, NCI, 2024)

Tested on: 379773-124-R-J2-PDC spheroid viability
Assay: Anticancer human tumor 379773-124-R-J2-PDC patient-derived endometrial carcinoma cell line growth inhibition [POLQ]
Conditions: spheroids with HUVEC and MSC; for IC50: curve of first compound; for viability, T/C: stronger effect = lower value
Outline: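 Complex spheroid viability model combining PDC tumour cells with endothelial (HUVEC) and MSC stromal cells. Novobiocin, ART-558 or RP6685 were tested singly and in combination with standard and investigational anticancer drugs. Each was titrated in half-log steps from near clinical Cmax, or from 10 microM where Cmax was unknown.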

[1] = second compound 0.0316 µM, first compound 0.0316 µM
[2] = second compound 0.0316 µM, first compound 0.1 µM
[3] = second compound 0.0316 µM, first compound 0.316 µM
[4] = second compound 0.0316 µM, first compound 1 µM
[5] = second compound 0.0316 µM, first compound 3.16 µM
[6] = second compound 0.0316 µM, first compound 10 µM
[7] = second compound 0.1 µM, first compound 0.0316 µM
[8] = second compound 0.1 µM, first compound 0.1 µM
[9] = second compound 0.1 µM, first compound 0.316 µM
[10] = second compound 0.1 µM, first compound 1 µM
[11] = second compound 0.1 µM, first compound 3.16 µM
[12] = second compound 0.1 µM, first compound 10 µM
[13] = second compound 0.316 µM, first compound 0.0316 µM
[14] = second compound 0.316 µM, first compound 0.1 µM
[15] = second compound 0.316 µM, first compound 0.316 µM
[16] = second compound 0.316 µM, first compound 1 µM
[17] = second compound 0.316 µM, first compound 3.16 µM
[18] = second compound 0.316 µM, first compound 10 µM
[19] = second compound 1 µM, first compound 0.0316 µM
[20] = second compound 1 µM, first compound 0.1 µM
[21] = second compound 1 µM, first compound 0.316 µM
[22] = second compound 1 µM, first compound 1 µM
[23] = second compound 1 µM, first compound 3.16 µM
[24] = second compound 1 µM, first compound 10 µM
[25] = second compound 3.16 µM, first compound 0.0316 µM
[26] = second compound 3.16 µM, first compound 0.1 µM
[27] = second compound 3.16 µM, first compound 0.316 µM
[28] = second compound 3.16 µM, first compound 1 µM
[29] = second compound 3.16 µM, first compound 3.16 µM
[30] = second compound 3.16 µM, first compound 10 µM
[31] = second compound 10 µM, first compound 0.0316 µM
[32] = second compound 10 µM, first compound 0.1 µM
[33] = second compound 10 µM, first compound 0.316 µM
[34] = second compound 10 µM, first compound 1 µM
[35] = second compound 10 µM, first compound 3.16 µM
[36] = second compound 10 µM, first compound 10 µM
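Note: spheroids exposed to drugs for seven days before readout.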
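Throughout, for viability, T/C: percent viability relative to DMSO vehicle control taken as 100%.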

## C=CC(=O)N1CCN(c2nc(=O)n(-c3c(C)ccnc3C(C)C)c3nc(-c4c(O)cccc4F)c(F)cc23)C(C)C1 (stereo not drawn) + Cc1cccc(N(C)C(=O)C2C(O)CCN2c2nc(C)cc(C(F)(F)F)c2C#N)c1
Second compound 0.0316 µM
  IC50: > 10000 nM
Second compound 0.1 µM
  IC50: > 10000 nM
Second compound 0.316 µM
  IC50: > 10000 nM
Second compound 1 µM
  IC50: > 10000 nM
Second compound 3.16 µM
  IC50: > 10000 nM
Second compound 10 µM
  IC50: > 10000 nM
[1]
  viability, T/C: 88.5%
[2]
  viability, T/C: 89.8%
[3]
  viability, T/C: 82%
[4]
  viability, T/C: 105%
[5]
  viability, T/C: 77.1%
[6]
  viability, T/C: 76.2%
[7]
  viability, T/C: 84.9%
[8]
  viability, T/C: 77.8%
[9]
  viability, T/C: 87.7%
[10]
  viability, T/C: 74.4%
[11]
  viability, T/C: 80.4%
[12]
  viability, T/C: 86.1%
[13]
  viability, T/C: 91%
[14]
  viability, T/C: 70.4%
[15]
  viability, T/C: 82.8%
[16]
  viability, T/C: 85%
[17]
  viability, T/C: 95.8%
[18]
  viability, T/C: 75.7%
[19]
  viability, T/C: 80%
[20]
  viability, T/C: 81.1%
[21]
  viability, T/C: 95.2%
[22]
  viability, T/C: 75.2%
[23]
  viability, T/C: 87.4%
[24]
  viability, T/C: 64.2%
[25]
  viability, T/C: 84.4%
[26]
  viability, T/C: 90.3%
[27]
  viability, T/C: 87.3%
[28]
  viability, T/C: 86.3%
[29]
  viability, T/C: 86.6%
[30]
  viability, T/C: 78.9%
[31]
  viability, T/C: 78%
[32]
  viability, T/C: 82.1%
[33]
  viability, T/C: 91.8%
[34]
  viability, T/C: 73.5%
[35]
  viability, T/C: 82.8%
[36]
  viability, T/C: 84.3%

## CCc1c2c(nc3ccc(O)cc13)-c1cc3c(c(=O)n1C2)COC(=O)[C@]3(O)CC + COC1C(OC(N)=O)C(O)C(Oc2ccc3c(O)c(NC(=O)c4ccc(O)c(CC=C(C)C)c4)c(=O)oc3c2C)OC1(C)C
Second compound 0.0316 µM
  IC50: < 3.16 nM
Second compound 0.1 µM
  IC50: < 3.16 nM
Second compound 0.316 µM
  IC50: < 3.16 nM
Second compound 1 µM
  IC50: < 3.16 nM
Second compound 3.16 µM
  IC50: < 3.16 nM
Second compound 10 µM
  IC50: < 3.16 nM
Second compound 0.0316 µM, first compound 0.00316 µM
  viability, T/C: 42.4%
Second compound 0.0316 µM, first compound 0.01 µM
  viability, T/C: 8.01%
[1]
  viability, T/C: 6.39%
[2]
  viability, T/C: 2.16%
[3]
  viability, T/C: 1.05%
[4]
  viability, T/C: 0.62%
Second compound 0.1 µM, first compound 0.00316 µM
  viability, T/C: 49.5%
Second compound 0.1 µM, first compound 0.01 µM
  viability, T/C: 11.7%
[7]
  viability, T/C: 5.4%
[8]
  viability, T/C: 1.94%
[9]
  viability, T/C: 0.57%
[10]
  viability, T/C: 1.04%
Second compound 0.316 µM, first compound 0.00316 µM
  viability, T/C: 45.1%
Second compound 0.316 µM, first compound 0.01 µM
  viability, T/C: 8.27%
[13]
  viability, T/C: 5.04%
[14]
  viability, T/C: 2.09%
[15]
  viability, T/C: 2.43%
[16]
  viability, T/C: 0.41%
Second compound 1 µM, first compound 0.00316 µM
  viability, T/C: 40%
Second compound 1 µM, first compound 0.01 µM
  viability, T/C: 9.16%
[19]
  viability, T/C: 5.09%
[20]
  viability, T/C: 1.92%
[21]
  viability, T/C: 0.94%
[22]
  viability, T/C: 0.31%
Second compound 3.16 µM, first compound 0.00316 µM
  viability, T/C: 41.8%
Second compound 3.16 µM, first compound 0.01 µM
  viability, T/C: 9.15%
[25]
  viability, T/C: 5.39%
[26]
  viability, T/C: 2.03%
[27]
  viability, T/C: 0.93%
[28]
  viability, T/C: 0.3%
Second compound 10 µM, first compound 0.00316 µM
  viability, T/C: 41.5%
Second compound 10 µM, first compound 0.01 µM
  viability, T/C: 7.13%
[31]
  viability, T/C: 6.51%
[32]
  viability, T/C: 1.69%
[33]
  viability, T/C: 1.78%
[34]
  viability, T/C: 0.49%

## COc1cccc2c1C(=O)c1c(O)c3c(c(O)c1C2=O)CC(O)(C(=O)CO)CC3OC1CC(N)C(O)C(C)O1 (stereo not drawn) + Cc1cccc(N(C)C(=O)C2C(O)CCN2c2nc(C)cc(C(F)(F)F)c2C#N)c1
Second compound 0.0316 µM
  IC50: 58.5 nM
Second compound 0.1 µM
  IC50: 63.5 nM
Second compound 0.316 µM
  IC50: 52 nM
Second compound 1 µM
  IC50: 54.1 nM
Second compound 3.16 µM
  IC50: 48.3 nM
Second compound 10 µM
  IC50: < 31.6 nM
[1]
  viability, T/C: 80.6%
[2]
  viability, T/C: 22%
[3]
  viability, T/C: 9.56%
[4]
  viability, T/C: 6.15%
[5]
  viability, T/C: 0.89%
[6]
  viability, T/C: 0.14%
[7]
  viability, T/C: 82.8%
[8]
  viability, T/C: 28.3%
[9]
  viability, T/C: 9.45%
[10]
  viability, T/C: 5.6%
[11]
  viability, T/C: 1.37%
[12]
  viability, T/C: 0.84%
[13]
  viability, T/C: 70.5%
[14]
  viability, T/C: 23.1%
[15]
  viability, T/C: 7.91%
[16]
  viability, T/C: 6.47%
[17]
  viability, T/C: 2%
[18]
  viability, T/C: 1.9%
[19]
  viability, T/C: 74.8%
[20]
  viability, T/C: 20.8%
[21]
  viability, T/C: 9.58%
[22]
  viability, T/C: 5.67%
[23]
  viability, T/C: 0.65%
[24]
  viability, T/C: 1.38%
[25]
  viability, T/C: 69.5%
[26]
  viability, T/C: 15.7%
[27]
  viability, T/C: 7.22%
[28]
  viability, T/C: 7.14%
[29]
  viability, T/C: 1.2%
[30]
  viability, T/C: 0.28%
[31]
  viability, T/C: 48.5%
[32]
  viability, T/C: 12%
[33]
  viability, T/C: 9.32%
[34]
  viability, T/C: 4.59%
[35]
  viability, T/C: 0.51%
[36]
  viability, T/C: 0.38%

## CC1COCCN1c1cc(C2(S(C)(=N)=O)CC2)nc(-c2ccnc3[nH]ccc23)n1 (stereo not drawn) + Cc1cccc(N(C)C(=O)C2C(O)CCN2c2nc(C)cc(C(F)(F)F)c2C#N)c1
Second compound 0.0316 µM
  IC50: 2060 nM
Second compound 0.1 µM
  IC50: 1870 nM
Second compound 0.316 µM
  IC50: 1970 nM
Second compound 1 µM
  IC50: 1840 nM
Second compound 3.16 µM
  IC50: 2030 nM
Second compound 10 µM
  IC50: 1630 nM
[1]
  viability, T/C: 83.3%
[2]
  viability, T/C: 84.7%
[3]
  viability, T/C: 81.1%
[4]
  viability, T/C: 77%
[5]
  viability, T/C: 34.2%
[6]
  viability, T/C: 5.98%
[7]
  viability, T/C: 89.4%
[8]
  viability, T/C: 91.2%
[9]
  viability, T/C: 79.7%
[10]
  viability, T/C: 81.5%
[11]
  viability, T/C: 23.9%
[12]
  viability, T/C: 5.96%
[13]
  viability, T/C: 87.1%
[14]
  viability, T/C: 97%
[15]
  viability, T/C: 80.1%
[16]
  viability, T/C: 78.6%
[17]
  viability, T/C: 30.6%
[18]
  viability, T/C: 8.62%
[19]
  viability, T/C: 81.4%
[20]
  viability, T/C: 78.8%
[21]
  viability, T/C: 79.8%
[22]
  viability, T/C: 69.4%
[23]
  viability, T/C: 32.7%
[24]
  viability, T/C: 6.64%
[25]
  viability, T/C: 84.4%
[26]
  viability, T/C: 88.7%
[27]
  viability, T/C: 79.2%
[28]
  viability, T/C: 61.8%
[29]
  viability, T/C: 42.2%
[30]
  viability, T/C: 7.75%
[31]
  viability, T/C: 84.6%
[32]
  viability, T/C: 73.3%
[33]
  viability, T/C: 79.2%
[34]
  viability, T/C: 62.5%
[35]
  viability, T/C: 32.2%
[36]
  viability, T/C: 8.39%
